≈ marks a conversion by molar mass, not a printed value.
How the values were obtained:
Experiment in all cases: microbe, parasite or virus in culture
Assay type in all cases: cell-based, M. tuberculosis
[1] = system: FQ-R1 (fluoroquinolone resistant); details: Mycobacterium tuberculosis
[2] = system: INH-R2 (isoniazid resistant)
[3] = system: RIF-R1 (rifampicin resistant); details: Mycobacterium tuberculosis
[4] = system: INH-R1 (isoniazid resistant)
[5] = system: RIF-R2 (rifampicin resistant); details: Mycobacterium tuberculosis
[6] = system: ofloxacin-resistant strain; details: Mycobacterium tuberculosis
[7] = system: isoniazid-resistant strain; details: Mycobacterium tuberculosis
[8] = system: rifampin-resistant strain; details: Mycobacterium tuberculosis

For CO[C@H]1/C=C/O[C@@]2(C)Oc3c(C)c(O)c4c(O)c(c(/C=N/N5CCN(C)CC5)c(O)c4c3C2=O)NC(=O)/C(C)=C\C=C\[C@H](C)[C@H](O)[C@@H](C)[C@@H](O)[C@@H](C)[C@H](OC(C)=O)[C@@H]1C [rifampicin], which MIC [1] is on record?
Its MIC is 0.017 µM (≈ 0.014 µg/mL).

What about the MIC ([2]; Mycobacterium tuberculosis) of the same molecule?
Its MIC is 0.0075 µM (≈ 0.00617 µg/mL).

What about the MIC [3] of the same molecule?
Its MIC is 12.4 µM (≈ 10.2 µg/mL).

And the MIC ([4]; Mycobacterium tuberculosis)?
The MIC was 0.02 µM (≈ 0.0165 µg/mL).

What about the MIC [5] of the same molecule?
The MIC was > 200 µM.

How did the MIC ([2]; Mycobacterium tuberculosis) turn out when NNC(=O)c1ccncc1 [Isoniazid (INH), isoniazid] was run?
Its MIC is > 200 µM.

And the MIC ([2]; Resistant Isolate INH-R2, isoniazid-sucrose series)?
The MIC was >200 µM.

And the MIC ([4]; Mycobacterium tuberculosis)?
Its MIC is > 200 µM.

And the MIC ([4]; Resistant Isolate INH-R1, isoniazid-sucrose series)?
The MIC was >200 µM.

NCC[C@H](O)C(=O)N[C@@H]1C[C@H](N)[C@@H](O[C@H]2O[C@H](CN)[C@@H](O)[C@H](O)[C@H]2O)[C@H](O)[C@H]1O[C@H]1O[C@H](CO)[C@@H](O)[C@H](N)[C@H]1O [amikacin] was tested. Which MIC [6] did it give?
The MIC was 0.256 µM (≈ 0.15 µg/mL).

What about the MIC [7] of the same molecule?
Its MIC is 2.05 µM (≈ 1.2 µg/mL).

And the MIC [8]?
Its MIC is 0.256 µM (≈ 0.15 µg/mL).

Source: patent US10335374B2, “Tablet composition for anti-tuberculosis antibiotics” (priority 2014, dated 2019)
